Data reported in patent US5955337A, “DNA encoding GLS1” (Merck & Co., Inc., priority 1996, dated 1999).
Read-outs that look alike come from different tables or passages of the source. *1 amine or outer side, *2 acyl side, *3 side chain or, on linkers, in order; H or OH if unused. Where a SMILES comes first, the peptide text is derived from it. Bridges are numbered along the chain shown (N, C = ends). [ ]: non-standard residue; d: D form. The star is where a group is joined. dOrn(4R-OH,5R-OH) = O=C([C@@H](C[C@@H](O)[C@@H](O)N[*:3])N[*:1])[*:2]; Tetradecanoyl(10R,12S-Me2) = CC[C@H](C)C[C@H](C)CCCCCCCCC(=O)*; hTyr(3S-OH,4S-OH) = N[C@H](C(=O)O)[C@H](O)[C@@H](O)c1ccc(O)cc1; Pro(3S-OH,4S-Me) = C[C@H]1CN[C@H](C(=O)O)[C@H]1O; Gln(3R-OH) = NC(=O)C[C@@H](O)[C@H](N)C(=O)O; Hyp = O=C(O)[C@@H]1C[C@@H](O)CN1

What was measured:
1,3-β-glucan synthase = molecular target: T1, 1,3-β-glucan synthase (Saccharomyces cerevisiae, UniProt P06780); test: biochemical
T1 construct: Membrane extracts were prepared from mutant and wild-type cells grown to logarithmic phase; endogenous in cells; host or cells: S. cerevisiae X2180-1A (wild-type) and MS1 (gls1-1 mutant), washed 100,000×g membrane pellet
T1 sequence (P38631 whole entry): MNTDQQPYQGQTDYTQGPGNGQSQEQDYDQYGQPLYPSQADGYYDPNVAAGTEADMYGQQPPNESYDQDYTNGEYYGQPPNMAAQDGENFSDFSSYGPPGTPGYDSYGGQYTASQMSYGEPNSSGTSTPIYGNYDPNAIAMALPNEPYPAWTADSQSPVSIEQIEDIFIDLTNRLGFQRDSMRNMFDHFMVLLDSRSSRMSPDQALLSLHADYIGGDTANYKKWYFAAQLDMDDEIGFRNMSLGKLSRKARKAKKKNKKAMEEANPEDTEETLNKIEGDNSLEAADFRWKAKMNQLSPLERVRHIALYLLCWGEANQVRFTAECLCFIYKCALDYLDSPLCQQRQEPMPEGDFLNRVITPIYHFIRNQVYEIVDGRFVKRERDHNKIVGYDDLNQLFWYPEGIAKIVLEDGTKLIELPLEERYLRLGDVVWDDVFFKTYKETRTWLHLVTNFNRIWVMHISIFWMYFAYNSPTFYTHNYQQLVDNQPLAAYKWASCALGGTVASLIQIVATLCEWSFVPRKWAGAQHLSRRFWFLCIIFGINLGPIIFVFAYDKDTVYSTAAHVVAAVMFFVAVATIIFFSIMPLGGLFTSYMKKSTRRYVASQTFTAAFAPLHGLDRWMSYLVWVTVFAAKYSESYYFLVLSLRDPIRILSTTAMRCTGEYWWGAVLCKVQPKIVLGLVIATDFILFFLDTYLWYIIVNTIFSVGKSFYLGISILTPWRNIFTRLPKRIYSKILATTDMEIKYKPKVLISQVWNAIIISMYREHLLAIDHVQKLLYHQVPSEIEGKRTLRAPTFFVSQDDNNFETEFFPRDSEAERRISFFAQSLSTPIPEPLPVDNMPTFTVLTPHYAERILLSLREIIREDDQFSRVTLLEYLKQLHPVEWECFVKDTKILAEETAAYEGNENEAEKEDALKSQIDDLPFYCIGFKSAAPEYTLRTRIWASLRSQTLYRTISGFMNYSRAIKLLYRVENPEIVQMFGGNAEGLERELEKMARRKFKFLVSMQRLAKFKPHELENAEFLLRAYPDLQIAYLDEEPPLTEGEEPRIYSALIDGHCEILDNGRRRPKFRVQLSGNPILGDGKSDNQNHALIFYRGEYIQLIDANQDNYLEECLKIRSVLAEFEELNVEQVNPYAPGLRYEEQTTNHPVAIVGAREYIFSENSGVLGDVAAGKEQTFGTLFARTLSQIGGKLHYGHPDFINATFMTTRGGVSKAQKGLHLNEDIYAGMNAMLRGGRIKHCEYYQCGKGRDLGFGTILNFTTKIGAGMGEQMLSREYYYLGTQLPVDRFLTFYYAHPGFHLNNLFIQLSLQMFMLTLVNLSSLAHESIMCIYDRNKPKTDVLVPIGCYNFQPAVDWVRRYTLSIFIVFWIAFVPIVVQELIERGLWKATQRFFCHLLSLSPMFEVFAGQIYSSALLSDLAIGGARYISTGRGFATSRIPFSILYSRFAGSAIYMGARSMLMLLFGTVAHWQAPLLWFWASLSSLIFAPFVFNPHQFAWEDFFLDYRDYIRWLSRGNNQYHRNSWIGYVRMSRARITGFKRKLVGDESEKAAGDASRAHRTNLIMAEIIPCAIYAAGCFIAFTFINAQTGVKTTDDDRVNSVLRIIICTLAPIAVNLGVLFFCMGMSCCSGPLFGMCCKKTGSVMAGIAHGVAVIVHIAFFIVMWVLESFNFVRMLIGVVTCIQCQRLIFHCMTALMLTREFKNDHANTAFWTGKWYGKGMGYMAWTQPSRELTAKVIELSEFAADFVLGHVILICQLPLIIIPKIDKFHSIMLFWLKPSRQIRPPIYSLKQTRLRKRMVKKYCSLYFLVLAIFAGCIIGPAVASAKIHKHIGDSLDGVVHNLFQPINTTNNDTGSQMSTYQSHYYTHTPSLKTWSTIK
T1 sequence (P06780 2-206): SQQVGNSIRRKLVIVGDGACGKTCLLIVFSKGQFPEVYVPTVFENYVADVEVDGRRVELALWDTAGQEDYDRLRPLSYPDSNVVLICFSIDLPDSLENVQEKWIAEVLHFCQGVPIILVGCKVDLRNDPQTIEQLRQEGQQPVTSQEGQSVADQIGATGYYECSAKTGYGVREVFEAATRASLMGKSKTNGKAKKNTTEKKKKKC
Experimental: Membrane extracts were prepared from mutant and wild-type cells grown to logarithmic phase (Kang and Cabib, PNAS, 83, 5808-5812, 1986). After homogenization with glass beads, unbroken cells and debris were removed by low speed centrifugation (1,000×g for 5 min). The supernatant fluids were centrifuged at 100,000×g for 60 min, and the resulting pellets were washed with 2.5 ml (per gram of wet cells) of buffer containing 0.05 M potassium phosphate (pH 7.5), 0.5 mM DTT, and 1.0 mM PMSF. The washed pellet was resuspended in the same buffer containing 5% glycerol. This protein extract served as the source for both 1,3-β-glucan synthase and the chitin synthases utilized in the enzymatic assays.
Protein concentrations were determined using BCA protein assay reagent kit (Pierce Corp.), utilizing bovine serum album (BSA; Pierce Corp.) as a standard. The 1,3-β-glucan synthase reactions were performed as previously described (Cabib, E., and M. S. Kang. 1987. Fungal 1,3-b-glucansynthase, Methods Enzymol. 138: 637-642). Briefly, an […] reaction contained 125 mM Tris HCL (pH7.5), 0.25 mM dithiothretol, 30 mM KF, 0.3 M glycerol, 0.23% BSA, 0.125 mM PMSF, 2 mM UDP-glucose, […] guanosine 5'-(g-thio) triphosphate (GTPγS), 0.1 nmol UDP-[^3 H] glucose (Amersham; 4.5 Ci/mmol;) plus […] of membrane protein extract. The reactions were performed in the presence of 0.0, 0.1, 0.5, 5, 25 and 50 mM L, 733-560 for dose titration of the drug. Following incubation at 25° C. for 150 minutes, the [^3 H]-glucose incorporated into trichloroacetic acid-insoluble material was collected onto glass fiber filters (102×258 mm) and measured using a betaplate liquid scintillation counter (Cambridge Technologies Inc.; series 2800 harvester) at 25% efficiency. The product of such reactions was verified by solubilization by laminarinase (Sigma, #L9259) but not by α-amylase (Sigma, #A2643).
To study activation of 1,3-β-glucan synthesis by GTPγS incorporation of UDP-glucose into 1,3-β-D glucans, in absence and in presence of 3.3 uM GTPγS was measured. […]

Pneumocystis carinii = conditions: rat model of P. carinii pneumonia; Schmatz et al. 1990; cited from earlier work
MS14 (fks1-4) = test: Zone of growth inhibition assay, fks1-4 mutant; assay type: cell-based, Saccharomyces cerevisiae; conditions: μg/Disc: L,733-560 20; L-688-786 10; Aculeacin 50; Papulacandin 50; Nikkomycin Z 10; Rapamycin 12.5
Excerpt: (§1) Mutations of the GLS1 gene, including but not limited to gls1-1 (strain MS1), gls1-2 (strain MS41) and gls1-3 (strain MS43), or disruptions or deletions of GLS1, are useful for screening for glucan synthase inhibitors. Such a screen relies on the increase in echinocandin-resistance and in papulacandin sensitivity of such mutants compared to an GLS1 wild-type strain. Any technique capable of detecting this difference in sensitivity can be used. A zone of inhibition assay on agar plates is particularly useful.
(§2) The GLS1 and the fks1-4 mutants can be incorporated into an assay to screen and classify antifungal compounds with chitin and glucan synthase inhibitory effects, based on their differential resistance/sensitivity to the echinocandins, papulacandin and Nikkomycin Z. The data from this assay and the sizes of the zones of growth inhibition in millimeter is given in the following table: […]

X2180 (WT) = test: Zone of growth inhibition assay, wild-type strain; assay type: cell-based, Saccharomyces cerevisiae; conditions: μg/Disc: L,733-560 20; L-688-786 10; Aculeacin 50; Papulacandin 50; Nikkomycin Z 10; Rapamycin 12.5
Excerpt: as §1, §2

[1] = tested on: fks1-4 mutant (strain MS14); test: Resistance/sensitivity of fks1-4 mutant relative to wild-type; assay type: cell-based, Saccharomyces cerevisiae; conditions: fks1-4 mutant vs wild-type
Excerpt: as §2

MS1 (gls1-1) = test: Zone of growth inhibition assay, gls1-1 mutant; assay type: cell-based, Saccharomyces cerevisiae; conditions: μg/Disc: L,733-560 20; L-688-786 10; Aculeacin 50; Papulacandin 50; Nikkomycin Z 10; Rapamycin 12.5
Excerpt: as §1, §2

[2] = tested on: Strain MS1 (gls1-1 mutant); test: Effect of antifungal drugs on strain MS1 relative to wild-type parental strain; assay type: cell-based, Saccharomyces cerevisiae; conditions: FIG. 2, FIG. 10
Experimental: To quantitate the echinocandin sensitivity/resistance of the mutant strains, yeast cells grown to log phase were inoculated into 2 ml SC broth and incubated overnight at 28° C. A flat bottom 96-well microtiter plate was seeded with 75 μl of SC medium in columns 2 through 12. To column 1, 150 μl medium was added. Echinocandin (L-733,560) was prepared at a concentration of 30 μg/ml solution in sterile distilled water. An aliquot (75 μl) of echinocandin solution was added to column 3, and 75 μl from column 3 was transferred to column 4, followed by mixing of the contents of each well. 75 μl from column 4 was transferred into column 5, and the serial dilution was carried on to column 12 from which a 75 μl was discarded. A dilution of 6×10^5 cells/ml in URA drop out medium was prepared from the yeast strains. 75 μl cell suspension was then added to columns 2 through 12 giving 4.5×10^4 cells/well. The plates were incubated at 28° C. for 24-48 hr. Growth in the presence and absence of echinocandin was measured by absorbance at 600 nm.

Molecule | response of MS1 mutant enzymatic activity to increasing concentrations of GTPγS (1,3-β-glucan synthase; MS1 mutant membranes, FIG. 5) | fold induction at 3.3 µM (1,3-β-glucan synthase; read-out: stimulation of glucan synthesis by GTPγS, MS1 mutant enzyme) | fold induction at 3.3 µM (1,3-β-glucan synthase; read-out: stimulation of glucan synthesis by GTPγS, first value) | reduction of the number of cysts in the lungs of infected rats (Pneumocystis carinii) | size of the zone of growth inhibition, MS14 (fks1-4) (MS14 (fks1-4)) [millimeter] | size of the zone of growth inhibition, X2180 (WT) (X2180 (WT)) [millimeter] | fold more sensitive than wild-type, fks1-4 mutant (MS14) [1] [fold] | size of the zone of growth inhibition, MS1 (gls1-1) (MS1 (gls1-1)) [millimeter] | sensitivity/resistance of MS1 cells compared with wild-type parental strain [2]
Nc1nc2c(ncn2[C@@H]2O[C@H](COP(=O)(O)OP(=O)(O)OP(O)(O)=S)[C@@H](O)[C@H]2O)c(=O)[nH]1 [GTPγS, guanosine 5'-(g-thio) triphosphate] | responded rather poorly | 6 | ~19 |  |  |  |  |  | 
CC[C@H](C)C[C@H](C)CCCCCCCCC(=O)N[C@@H]1C[C@@H](O)[C@@H](O)NC(=O)[C@@H]2[C@@H](O)[C@@H](C)CN2C(=O)[C@H]([C@H](O)CC(N)=O)NC(=O)[C@H]([C@H](O)[C@@H](O)c2ccc(O)cc2)NC(=O)[C@@H]2C[C@@H](O)CN2C(=O)[C@H]([C@@H](C)O)NC1=O [L-671,329] ({Tetradecanoyl(10R,12S-Me2)}-[dOrn(4R-OH,5R-OH)]T[Hyp][hTyr(3S-OH,4S-OH)][Gln(3R-OH)][Pro(3S-OH,4S-Me)]; lactam 1-C) |  |  |  | effective in reducing the number of cysts |  |  |  |  | 
C[C@@H]([C@H](N)C(=O)N[C@H](C(=O)O)[C@H]1O[C@@H](n2ccc(=O)[nH]c2=O)[C@H](O)[C@@H]1O)[C@H](O)c1ccc(O)cn1 [Nikkomycin Z] |  |  |  |  | 30.0 | 0.0 | 1000 | 0.0 | 
CCC(O)/C=C/C=C/C=C/C(=O)OC[C@H]1O[C@@H](O[C@H]2[C@H](OC(=O)/C=C/C=C/CC(O)/C(C)=C/C=C/CCC(C)CC)[C@@H](O)[C@@]3(OCc4cc(O)cc(O)c43)O[C@@H]2CO)[C@H](O)[C@@H](O)[C@H]1O (stereo partly shown) [Papulacandin] |  |  |  |  | 10 | 10 |  | 20 | more sensitive
CO[C@H]1C[C@@H]2CC[C@@H](C)[C@@](O)(O2)C(=O)C(=O)N2CCCC[C@H]2C(=O)O[C@H]([C@H](C)C[C@@H]2CC[C@@H](O)[C@H](OC)C2)CC(=O)[C@H](C)/C=C(\C)[C@@H](O)[C@@H](OC)C(=O)[C@H](C)C[C@H](C)/C=C/C=C/C=C/1C [Rapamycm, rapamycin] |  |  |  |  | 0.0 | 0.0 |  | 13 | more sensitive
Aculeacin |  |  |  |  | 0.0 | 15 |  | 9 | 
